Measured values from patent US5068325A, “4,5,7,8-tetrahydro-6H-thiazolo[5,4-d]azepines, their preparation and their use as pharmaceutical compositions” (priority 1988, dated 1991).

Key:
[1] = biological target: T1, serotonin-2(5-HT2)-receptors (Rattus norvegicus, UniProt P14842); assay: affinity for serotonin-2 (5-HT2) receptors by displacement experiments with [3H]-spiperone (rat frontal cortex); type: binding
T1 construct: The frontal cortex was dissected out and placed in ice cold 0.32 M saccharose solution; from tissue; host or cells: rat frontal cortex homogenate (Chbb:Thom strain)
Procedure: Specific binding is obtained from total binding minus non-specific binding.
A male rat (Chbb:Thom strain, about 200 g) was decapitated. The brain was removed. The frontal cortex was dissected out and placed in ice cold 0.32 M saccharose solution; its moist weight was determined. It was homogenised in 10 times the volume (0.32 M) of saccharose solution for 1 minute at 800 rpm in a Potter S (made by Braun of Melsungen). The homogenised material was centrifuged for 10 minutes at 1000×g (=3,000 rpm with a rotor 8×38 ml) in a refrigerated centrifuge. The supernatant was decanted off and homogenised (Polytron, position 5, 1 minute); the sediment was discarded. 5 ml (=0.5 g moist weight) of the tissue suspension thus obtained were made up to 40 ml with buffer (50 mm tris-HCl; pH=7.7 at ambient temperature).
0.8 ml of the buffered homogenised tissue (=10 mg moist weight) were incubated with 0.1 ml of a solution of [^3 H]-spiperone (about 0.2 nmol/1 final concentration) and with 0.1 ml of a solution of the test substance (increasing concentration) for 15 minutes at 37° C. (triple measurement). Incubation was stopped by rapid filtering through a Whatman GF/B filter; rinsing was carried out 3 times, each time with 5 ml of ice cold buffer within a maximum of 10 seconds (Filter Prep Messrs. Ismatec). The radioactivity of the filters was determined by liquid scintillation measurement.
The specific binding is obtained from the total binding minus the non-specific binding. The averages of the triple measurements are entered in a system of coordinates as in 1.3. The IC50 value is the concentration which inhibits the specific binding of [^3 H]-spiperone by 50%.

MPTP monkeys = assay: post-synaptic dopaminergic activity in MPTP monkeys; type: in vivo, rhesus monkey; conditions: for minimal effective dose: Primates, in Macaca mulatta, im, rhesus monkeys, i.m., read-out: minimum dose (MED) required to alleviate the Parkinson's symptoms
Source text: 6. Determining the post-synaptic dopaminergic activity in MPTP monkeys (Modified Method of R. S. Burns et al., Proc. Natl. Acad. Sci. 80. 4546 (1983))
The neurotoxin 1-methyl-4-phenyl-1,2,3,6- tetrahydro-pyridine (MPTP) produces in humans and monkeys an irreversible syndrome which in its clinical, pathological, biochemical and pharmacological appearance is very similar to idiopathic Parkinson's disease (Markey et al., Nature 311, 464 (1984)). The reason for this similarity is that MPTP selectively destroys those dopaminergic nerve cells in the substantia nigra of the brain which are also lost by degenerative processes in Parkinson's disease. There is even some discussion that MPTP or an MPTP-like substance might be formed in the body and trigger Parkinson's disease (S. H. Snyder, Nature 311, 514 (1984)). Possibly because of the specific MPTP metabolism, the clinical formation of the MPTP-induced Parkinson syndrome has hitherto been detected only in humans and monkeys. The MPTP model produced in the rhesus monkey is therefore exceptionally suitable for testing the activity of post-synaptically acting dopamine agonists. For this purpose, rhesus monkeys were given MPTP in overall doses of up to about 6 mg/kg of body weight, until the following symptoms appeared: The animals were akinetic and unable to take water and food.
It is clear that with the compounds according to the invention there is no sedative effect or ataxia at a dosage which is several times the MED, which can be put down to the absence of a corresponding activity mediated by the α2- receptors.

dopamine D2-receptors = dopamine D2-receptors (Rattus norvegicus, UniProt P61169); assay: affinity for dopamine D2-receptors by displacement experiments with [3H]-spiperone (rat striatum membranes); type: binding; conditions: for Ki: [3H]-spiperone, high-affinity form of the dopamine receptor; for α2-IC50 / D2-Ki: relative affinity for dopamine-D2 receptors compared with α2-adrenoceptors, the higher, the higher the D2/α2 selectivity
[2] = system: hypersensitive dopamine receptor; assay: motility triggering in the mouse treated 24 hours earlier with reserpine; type: in vivo
Procedure: This test determines predominantly agonistic effects on the hypersensitive dopamine receptor.
Male mice are treated 24 hours before the experiment with 5 mg/kg i.p. reserpine. The animals are kept at 25°-30° C. and treated three times with 2 ml of a 5% glucose solution in tyrode s.c. (the first time when the reserpine is given, the second time in the evening of the pre-treatment day and the third time on the morning of the test day).
[…] (The injection volume is usually 0.1 ml/10 g of body weight). 30 minutes later the groups of animals are placed in the observation cages (measuring 42 x 24 x 8 cm) and fitted with an infrared lightbeam in order to measure their activity. The value measured is the frequency with which a group of 6 mice pass through the infra-red beam within 5 minutes ("running pulses/5 minutes"; mean at n=3; mean±s.e.m. at n=6).
3 to 6 groups are tested for each substance.

Chain of dopamine D2-receptors (P61169 whole entry): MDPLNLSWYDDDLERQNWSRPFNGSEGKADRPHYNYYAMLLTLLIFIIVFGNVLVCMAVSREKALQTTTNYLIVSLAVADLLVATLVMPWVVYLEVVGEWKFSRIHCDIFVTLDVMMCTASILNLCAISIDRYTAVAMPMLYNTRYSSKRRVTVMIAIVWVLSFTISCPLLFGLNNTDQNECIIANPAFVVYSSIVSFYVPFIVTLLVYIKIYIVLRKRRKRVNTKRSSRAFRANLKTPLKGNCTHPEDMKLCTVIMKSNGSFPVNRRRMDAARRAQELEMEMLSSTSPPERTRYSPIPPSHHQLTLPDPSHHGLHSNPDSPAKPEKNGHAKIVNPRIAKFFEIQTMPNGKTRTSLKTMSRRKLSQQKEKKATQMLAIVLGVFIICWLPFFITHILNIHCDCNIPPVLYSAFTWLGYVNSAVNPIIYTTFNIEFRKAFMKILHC
T1 sequence (P14842 whole entry): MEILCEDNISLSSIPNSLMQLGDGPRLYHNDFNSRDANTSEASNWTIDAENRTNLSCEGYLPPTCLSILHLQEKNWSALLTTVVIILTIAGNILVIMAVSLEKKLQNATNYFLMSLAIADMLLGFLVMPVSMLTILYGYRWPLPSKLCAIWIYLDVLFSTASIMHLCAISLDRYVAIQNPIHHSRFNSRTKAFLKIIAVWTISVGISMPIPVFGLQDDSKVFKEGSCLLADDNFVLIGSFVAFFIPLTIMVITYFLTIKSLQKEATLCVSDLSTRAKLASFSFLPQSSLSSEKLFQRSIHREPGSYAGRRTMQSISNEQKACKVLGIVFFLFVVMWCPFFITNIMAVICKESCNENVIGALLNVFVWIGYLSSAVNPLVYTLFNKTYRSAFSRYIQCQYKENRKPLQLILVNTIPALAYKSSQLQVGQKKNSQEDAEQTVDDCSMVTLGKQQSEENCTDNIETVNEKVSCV

| SMILES | Ki [1] | Ki (dopamine D2-receptors) | α2-IC50 / D2-Ki (dopamine D2-receptors) | other results |
| --- | --- | --- | --- | --- |
| N#Cc1ccc(C=CCN2CCc3nc(N)sc3CC2)cc1 [Example 14b, 2-Amino-6-(3-(4-cyano-phenyl)allyl)-4,5,7,8-tetrahydro-6H-thiazolo[5,4-d]azepine] | 15000 nM | 2.6 nM | 192 | Duration of activity (MPTP monkeys; 0.05 mg/kg i.m. (MED)): 2.0 to 5 h; Side effects (MPTP monkeys; 0.05 mg/kg i.m. (MED)): none; Duration of activity (MPTP monkeys; 0.50 mg/kg i.m.): > 5 h; minimal effective dose (MPTP monkeys): 0.05 mg/kg |
| Nc1nc2c(s1)CCN(CC=Cc1cccc(OCc3ccccc3)c1)CC2 [Example 4y, 2-Amino-6-(3-(3-benzyloxy-phenyl)allyl)-4,5,7,8-tetrahydro-6H-thiazolo[5,4-d]azepine] | 470 nM | 0.73 nM | 410 |  |
| Nc1nc2c(s1)CCN(CC=Cc1nccc3ccccc13)CC2 [Example 7a, 2-Amino-6-(3-(1-isoquinolinyl)allyl)-4,5,7,8-tetrahydro-6H-thiazolo[5,4-d]azepine] | 120 nM | 0.92 nM | 3370 |  |
| Nc1nc2c(s1)CCN(CC=Cc1cccc3ccccc13)CC2 [Example 4t, 2-Amino-6-(3-(1-naphthyl)allyl)-4,5,7,8-tetrahydro-6H-thiazolo[5,4-d]azepine] | 26 nM | 3.1 nM | 148 |  |
| C=CCN1CCc2nc(N)sc2CC1 [Compound A, reference compound] | 20200 nM | 5 nM | 4.8 | running pulses every 5 minutes ([2]; 3 mg/kg s.c.): 50 running pulses every 5 minutes; ED (50 running pulses/5 min) ([2]; Mus musculus, sc, reserpine-treated mice, s.c., read-out: DLi50 (dosage resulting in 50 running pulses every 5 minutes)): 3 mg/kg; Duration of activity (MPTP monkeys; 0.03 mg/kg i.m. (MED)): 0.5 to 1 h; effect on MPTP-induced symptoms (MPTP monkeys; MPTP-treated rhesus monkeys): temporary cessation of this phenomenon; minimal effective dose (MPTP monkeys): 0.03 mg/kg |
| Nc1nc2c(s1)CCN(Cc1ccc(Cl)cc1)CC2 [Compound B, reference compound] | 18400 nM | 13 nM | 31.5 | running pulses every 5 minutes ([2]; 5 mg/kg s.c.): 22 running pulses every 5 minutes; effectiveness in motility triggering compared with compound A ([2]; reserpine-treated mice, s.c.): less effective than compound A; Duration of activity (MPTP monkeys; 0.15 mg/kg i.m.): 5 h |
| Nc1nc2c(s1)CCN(CC=Cc1ccccc1N1CCCCC1)CC2 [Example 11p, 2-Amino-6-(3-(2-(1-piperidino)phenyl)-2-propen-1-yl)-4,5,7,8-tetrahydro-6H-thiazolo[5,4-d]azepine] | 558 nM | 9.9 nM | 303 |  |
| Nc1nc2c(s1)CCN(CC=Cc1cc3ccccc3cn1)CC2 [Example 24a, 2-Amino-6-(3-(3-isoquinolinyl)allyl)-4,5,7,8-tetrahydro-6H-thiazolo[5,4-d]azepine] | 560 nM | 1.7 nM | 529 |  |
